Earlier results in patent publication US20030039681A1, “Rapid growth dairy heifers having reduced mammary fat content” (priority 2001, published 2003).

Experiments:
adipose tissue = details: growing pigs, CLA-supplement fed
lactating dairy cattle = details: abomasal infusion

**Q.** With conjugated linoleic acid [CLA] as the substance, how does the carcass lipid content (adipose tissue) read?
**A.** lower

**Q.** What about the “lipogenesis in adipose tissue” value (adipose tissue) of the same substance?
**A.** decreases

**Q.** And the proliferation of preadipocytes (preadipocytes)?
**A.** inhibits

**Q.** And the milk fat content (lactating dairy cattle)?
**A.** decreases
